# Source: patent publication US8362000B2, “Azetidinyl diamides as monoacylglycerol lipase inhibitors” (Janssen Pharmaceutica NV, priority 2009, dated 2013)
# Numbering of substitutions follows the chain as printed. Read-outs that look alike come from different tables or passages of the source.
# Assays:
# [1] = target: T1, purified wild type MGL (wt-MGLL 6H-11-313) (Homo sapiens, UniProt Q99685)
# T1 sequence (Q99685 1-303): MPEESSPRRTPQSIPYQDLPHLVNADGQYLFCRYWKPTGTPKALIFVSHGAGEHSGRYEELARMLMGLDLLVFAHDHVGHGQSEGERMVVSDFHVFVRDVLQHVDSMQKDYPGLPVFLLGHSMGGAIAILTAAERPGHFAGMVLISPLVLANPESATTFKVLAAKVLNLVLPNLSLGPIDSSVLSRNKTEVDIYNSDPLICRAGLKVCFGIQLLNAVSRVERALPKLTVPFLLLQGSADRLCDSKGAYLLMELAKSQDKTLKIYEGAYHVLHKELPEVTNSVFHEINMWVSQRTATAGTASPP
# [2] = test system: CFA-induced paw radiant heat hypersensitivity; test: CFA-induced paw radiant heat hypersensitivity; assay type: in vivo, rat; settings: 30 mg/kg p.o., HPβCD, last time point 180 or 300 min; for inhibition in vivo at 30 mg/kg: Rattus norvegicus, po
# mutant MGL = target: T2, mutant MGL (Homo sapiens, UniProt Q99685, L169S/L176S); test: MGL ThermoFluor assay - mutant; assay type: binding
# T2 sequence (Q99685 1-303 L169S/L176S): T1 sequence (Q99685 1-303) with L169S, L176S
# MGL = target: T3, MGL (Rattus norvegicus, UniProt Q8R431); test: 2-AG accumulation assay in rat brain homogenate; assay type: biochemical; settings: rat brain homogenate, 2-AG accumulation as percent of vehicle; for 2-AG accumulation, % of vehicle control at 1 µM: read-out: Rat Brain 2AG % VehCntrl (%) @ 1 μM; for 2-AG accumulation, % of vehicle control at 0.1 µM: compound 0.1 μM, read-out: Rat Brain 2AG % VehCntrl (%) @ 0.1 μM; for 2-AG accumulation, % of vehicle control at 10 µM: compound 10 μM, read-out: Rat Brain 2AG % VehCntrl (%) @ 10 μM; for 2-AG accumulation, % of vehicle control at 0.01 µM: compound 0.01 μM, read-out: Rat Brain 2AG % VehCntrl (%) @ 0.01 μM
# T3 construct: one g rat brain was homogenized using a Polytron homogenizer; from tissue; host or cells: rat brain homogenate
# T3 sequence (Q8R431 1-303): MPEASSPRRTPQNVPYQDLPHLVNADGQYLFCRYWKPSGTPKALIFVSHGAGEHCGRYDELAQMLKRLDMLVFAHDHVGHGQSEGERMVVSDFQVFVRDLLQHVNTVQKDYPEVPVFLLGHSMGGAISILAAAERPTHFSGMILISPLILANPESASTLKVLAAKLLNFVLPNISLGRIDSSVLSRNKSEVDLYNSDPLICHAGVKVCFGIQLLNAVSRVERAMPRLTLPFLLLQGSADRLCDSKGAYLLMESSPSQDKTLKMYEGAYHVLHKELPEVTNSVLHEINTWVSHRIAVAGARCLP
# [3] = group mean values, read-out: CFA thermal hypersensitivity Method 1: peak % reversal
# [4] = individual animal values, read-out: CFA thermal hypersensitivity Method 2: peak % reversal
# [5] = ThermoFluor thermal stability binding assay, read-out: MGL mutant ThermoFluor Kd
# [6] = ThermoFluor concentration-response, read-out: MGL mutant ThermoFluor Kd
# [7] = ThermoFluor, compound concentration measured by qNMR, read-out: MGL mutant ThermoFluor qKd (μM) (using qNMR conc.)
SMILES,IC50 [1],Kd (mutant MGL; [5]),"2-AG accumulation, % of vehicle control at 1 µM (MGL; compound 1 μM)","2-AG accumulation, % of vehicle control at 0.1 µM (MGL)","2-AG accumulation, % of vehicle control at 10 µM (MGL)",Kd (mutant MGL; [6]),"2-AG accumulation, % of vehicle control at 0.01 µM (MGL)",Kd (mutant MGL; [7]),"Kd (mutant MGL; compound concentration measured by qNMR, read-out: MGL mutant ThermoFluor qKd (using qNMR conc.))","inhibition in vivo at 30 mg/kg [2, 3]","inhibition in vivo at 30 mg/kg [2, 4]",CFA thermal hypersensitivity Method 1: peak % reversal ([2]; group mean values),"Kd (mutant MGL; MGL mutant ThermoFluor Kd, ThermoFluor concentration-response)","Kd (mutant MGL; MGL mutant ThermoFluor qKd (using qNMR conc.), compound concentration measured by qNMR)",Rat Brain 2AG % VehCntrl (%) @ 1 μM (MGL; compound 1 μM)
O=C(c1cscn1)N1CCN(C2CN(C(=O)c3sc4cc(-c5ccccc5)ccc4c3Cl)C2)CC1 [Cpd 345],< 5 nM,0.0031 µM,744%,–,–,–,–,–,–,25%,26.3%,–,–,–,–
"O=C(c1ccc(OCc2ccccn2)c(Cl)c1)N1CC(N2CCN(C(=O)c3nccs3)CC2)C1 [Cpd 407, 1-(1-{[3-Chloro-4-(pyridine-2-ylmethoxy)phenyl]carbon-yl}azetidin-3-yl)-4-(1,3-thiazol-2-ylcarbonyl)piperazine]",50.6 nM,0.0988 µM,441%,127%,743%,–,–,–,–,1.6%,1.4%,–,–,–,–
"Cc1nc(-c2cccc(C(F)(F)F)c2)sc1C(=O)N1CC(N2CCN(C(=O)c3cscn3)CC2)C1 [Cpd 485, 1-[1-({4-Methyl-2-[3-(trifluoromethyl)phenyl]-1,3-thiazol-5-yl}carbonyl)azetidin-3-yl]-4-(1,3-thiazol-4-ylcarbonyl)piperazine]",102 nM,–,396%,208%,818%,0.0257 µM,–,–,–,34.4%,32.3%,–,–,–,–
"Cc1cc(-c2ccccc2)ccc1C(=O)N1CC(N2CCN(C(=O)c3cscn3)CC2)C1 [Cpd 488, 1-{1-[(3-Methylbiphenyl-4-yl)carbonyl]azetidin-3-yl}-4-(1,3-thiazol-4-ylcarbonyl)piperazine]",382 nM,0.321 µM,248%,219%,681%,–,–,–,–,78%,85.5%,–,–,–,–
"Cc1nc(-c2ccc(Cl)cc2)sc1C(=O)N1CC(N2CCN(C(=O)c3nccs3)CC2)C1 [Cpd 489, 1-(1-{[2-(4-Chlorophenyl)-4-methyl-1,3-thiazol-5-yl]carbonyl}azetidin-3-yl)-4-(1,3-thiazol-2-ylcarbonyl)piperazine]",9 nM,–,790%,235%,950%,0.0104 µM,119%,–,–,27.1%,43.5%,–,–,–,–
"Cc1nc(-c2cccc(Cl)c2)sc1C(=O)N1CC(N2CCN(C(=O)c3nccs3)CC2)C1 [Cpd 490, 1-(1-{[2-(3-Chlorophenyl)-4-methyl-1,3-thiazol-5-yl]carbonyl}azetidin-3-yl)-4-(1,3-thiazol-2-ylcarbonyl)piperazine]",22.3 nM,–,756%,343%,886%,0.0084 µM,208%,–,–,18.4%,19.7%,–,–,–,–
O=C(c1ccccc1)N1CCN(C2CN(C(=O)c3sc4cc(C(F)(F)F)ccc4c3F)C2)CC1 [Cpd 509],136 nM,–,242%,–,–,0.033 µM,–,–,–,17.8%,–,–,–,–,–
"O=C(c1ccccc1)N1CCN(C2CN(C(=O)c3ccc4c(ccn4-c4ccc(F)c(F)c4)c3)C2)CC1 [Cpd 571, 1-(3,4-Difluorophenyl)-5-({3-[4-(phenylcarbonyl)piperazin-1-yl]azetidin-1-yl}carbonyl)-1H-indole]",28 nM,0.046 µM,307%,–,–,–,–,0.08 µM,–,133%,–,–,–,–,–
O=C(c1ccccc1)N1CCN(C2CN(C(=O)c3ccc4c(-c5cccc(C(F)(F)F)c5)c[nH]c4c3)C2)CC1 [Cpd 572],31 nM,–,397%,–,–,0.03 µM,–,–,–,-5.1%,–,–,–,–,–
O=C(c1cscn1)N1CCN(C2CN(C(=O)c3sc4cc(C(F)(F)F)ccc4c3F)C2)CC1 [Cpd 653],7 nM,–,861%,–,–,0.011 µM,–,–,–,-10.7%,–,–,–,–,–
"Cc1c(C(=O)N2CC(N3CCN(C(=O)c4ccc[nH]4)CC3)C2)sc2cc(C(F)(F)F)ccc12 [Cpd 657, 1-(1-{[3-Methyl-6-(trifluoromethyl)-1-benzothiophen-2-yl]carbonyl}azetidin-3-yl)-4-(1H-pyrrol-2-ylcarbonyl)piperazine]",9 nM,–,581%,–,–,0.002 µM,–,–,0.002 µM,66%,–,–,–,–,–
C/C(=C\c1ccc(Cl)cc1)c1c(C)c(C(=O)N2CC(N3CCN(C(=O)c4nccs4)CC3)C2)nn1-c1ccc(Cl)cc1Cl [Cpd 1010],< 5 nM,–,–,–,–,–,–,–,–,–,–,23.4%,0.017 µM,0.04 µM,1953%

# Continued, in another order:
IC50 [1],Kd (mutant MGL; [5]),"2-AG accumulation, % of vehicle control at 1 µM (MGL; compound 1 μM)","2-AG accumulation, % of vehicle control at 0.1 µM (MGL)","2-AG accumulation, % of vehicle control at 10 µM (MGL)",Kd (mutant MGL; [6]),"2-AG accumulation, % of vehicle control at 0.01 µM (MGL)",Kd (mutant MGL; [7]),"Kd (mutant MGL; compound concentration measured by qNMR, read-out: MGL mutant ThermoFluor qKd (using qNMR conc.))",SMILES,"inhibition in vivo at 30 mg/kg [2, 3]","inhibition in vivo at 30 mg/kg [2, 4]",CFA thermal hypersensitivity Method 1: peak % reversal ([2]; group mean values),"Kd (mutant MGL; MGL mutant ThermoFluor Kd, ThermoFluor concentration-response)","Kd (mutant MGL; MGL mutant ThermoFluor qKd (using qNMR conc.), compound concentration measured by qNMR)",Rat Brain 2AG % VehCntrl (%) @ 1 μM (MGL; compound 1 μM)
11 nM,–,274%,–,–,0.1 µM,–,–,–,O=C(c1ccc(Oc2cccc(Cl)c2)c(F)c1)N1CC(N2CCN(C(=O)c3cscn3)CC2)C1 [Cpd 662],21%,24%,–,–,–,–
11 nM,–,588%,–,–,0.02 µM,–,–,–,O=C(c1ccc(Oc2ncc(C(F)(F)F)cc2Cl)cc1)N1CC(N2CCN(C(=O)c3nccs3)CC2)C1 [Cpd 663],33.9%,–,–,–,–,–
13 nM,0.002 µM,359%,–,–,–,–,0.003 µM,–,O=C(c1cscn1)N1CCN(C2CN(C(=O)c3sc4cc(C(F)(F)F)c(F)cc4c3Cl)C2)CC1 [Cpd 666],-3.1%,–,–,–,–,–
15 nM,0.001 µM,650%,–,–,–,–,0.001 µM,–,O=C(c1cscn1)N1CCN(C2CN(C(=O)c3sc4c(F)c(C(F)(F)F)ccc4c3Cl)C2)CC1 [Cpd 670],20.9%,–,–,–,–,–
19 nM,–,891%,–,–,0.003 µM,–,–,–,"Cc1c(C(=O)N2CC(N3CCN(C(=O)c4cscn4)CC3)C2)sc2cc(C(F)(F)F)ccc12 [Cpd 674, 1-(1-{[3-Methyl-6-(trifluoromethyl)-1-benzothiophen-2-yl]carbonyl}azetidin-3-yl)-4-(1,3-thiazol-4-ylcarbonyl)piperazine]",57.7%,–,–,–,–,–
< 5 nM,0.001 µM,543%,–,–,–,–,0.001 µM,–,O=C(c1nccs1)N1CCN(C2CN(C(=O)c3sc4cc(C(F)(F)F)c(F)cc4c3Cl)C2)CC1 [Cpd 900],8.5%,–,–,–,–,–
8 nM,0.006 µM,551%,–,–,–,–,–,–,"O=C(c1ccc(-c2cccc(C(F)(F)F)c2)c(F)c1)N1CC(N2CCN(C(=O)c3cscn3)CC2)C1 [Cpd 1070, 1-(1-{[2-Fluoro-3′-(trifluoromethyl)biphenyl-4-yl]carbonyl}azetidin-3-yl)-4-(1,3-thiazol-4-ylcarbonyl)piperazine]",25.7%,23.1%,–,–,–,–
